Measured values reported in patent publication US10456467B2, “Nanoparticle delivery system for targeted anti-obesity treatment” (UNIVERSITY OF WYOMING, priority 2014, dated 2019).

Legend:
[1] = molecular target: T1, TRPV1 channel protein (CAP receptor) (Homo sapiens, UniProt Q8NER1); experiment: Fura-2 Ca2+ influx imaging in HEK293 cells expressing TRPV1; assay type: cell-based; settings: 1 μM CAP or equivalent, 22 degrees Celsius, FIG. 4
T1 construct: expressed in transfected cells; host or cells: HEK293
Description: FIG. 4 is a graph 400 of the time to peak rise of Ca^2+ for PLGA coated CMN, pure CAP and MNPs containing no CAP, according to embodiments described herein. HEK293 cells expressing TRPV1 channel protein (CAP receptor) grown on coverslips were loaded with Fura-2 AM (2 μM) for 40 minutes at room temperature. Cells were washed and then viewed with a Leica DMI3000 B inverted microscope coupled to a Polychrome V digital imaging system with Imago CCD camera. Cells were continuously superfused (22 degrees Celsius) with 2 mM Ca^2+ containing normal extracellular solution (NES). The Ca^2+ influx due to the addition of pure capsaicin (1 μM), CMN or PCMN (equivalent of 1 μM CAP), was observed and measured as a function of fluorescence.

[2] = cited from earlier work
[3] = CAP release (dissolution) in pH 7.4 phosphate buffer, Vankel dissolution apparatus; assay type: physicochemical; settings: 37° C.
Text: The cumulative release (%) was plotted against time. Cumulative % Release=C1V1×CF/100×C2
C1=Concentration of capsaicin in the final solution (g/ml);
C2=Drug content (mgs) used for dissolution study;
CF=Correction Factor, which is an accommodation for the change in volume due to sampling; and
V1=Volume of dissolution medium (ml)

T1 sequence (Q8NER1 whole entry): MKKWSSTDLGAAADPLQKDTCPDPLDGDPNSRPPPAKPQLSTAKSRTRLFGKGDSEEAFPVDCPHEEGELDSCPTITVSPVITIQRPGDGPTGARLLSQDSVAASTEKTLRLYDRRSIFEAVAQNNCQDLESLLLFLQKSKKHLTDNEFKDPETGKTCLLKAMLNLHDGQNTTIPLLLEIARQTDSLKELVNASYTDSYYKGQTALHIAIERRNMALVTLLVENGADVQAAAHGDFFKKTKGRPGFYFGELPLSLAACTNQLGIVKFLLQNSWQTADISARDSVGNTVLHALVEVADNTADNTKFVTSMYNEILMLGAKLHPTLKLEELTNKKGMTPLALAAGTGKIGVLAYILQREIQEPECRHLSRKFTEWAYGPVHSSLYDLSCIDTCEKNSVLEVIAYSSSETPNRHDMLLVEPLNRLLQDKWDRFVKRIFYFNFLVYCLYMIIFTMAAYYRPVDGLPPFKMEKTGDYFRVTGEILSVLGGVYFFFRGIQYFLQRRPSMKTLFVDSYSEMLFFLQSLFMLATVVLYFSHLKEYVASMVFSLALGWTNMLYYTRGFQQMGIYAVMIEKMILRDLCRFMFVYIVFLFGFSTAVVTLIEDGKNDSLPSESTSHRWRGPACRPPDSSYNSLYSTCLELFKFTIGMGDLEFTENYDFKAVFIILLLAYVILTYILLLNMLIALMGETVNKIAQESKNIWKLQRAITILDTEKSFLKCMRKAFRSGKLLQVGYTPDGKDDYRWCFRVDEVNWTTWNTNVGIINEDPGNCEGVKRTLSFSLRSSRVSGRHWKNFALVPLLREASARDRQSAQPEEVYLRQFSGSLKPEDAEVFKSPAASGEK

In the case of `COc1cc(CNC(=O)CCCC/C=C/C(C)C)ccc1O` [pure CAP, capsaicin], the “time at which rise in Ca2+ concentration begins” value [1] is listed as “approximately 175 seconds”, the “time of peak rise in Ca2+ concentration” value [1] is listed as “about 300 seconds” and the “effect on high fat diet-induced weight gain in the absence of the TRPV1 protein in adipose tissue” value ([2]; absence of TRPV1 protein in adipose tissue) is listed as “does not inhibit high fat diet-induced weight gain”. The “effect on high fat diet-induced weight gain” value ([2]; mouse model systems) was “inhibit high fat diet-induced weight gain”, the “time of peak CAP concentration (cumulative release)” value ([3]; FIG. 3, 15 to 3000 minutes) was “around 500 minutes” and the “course of CAP concentration after the peak” value ([3]; FIG. 3, up to 3000 minutes) was “steadily decrease”.
